Assay: recombinant UMI read abundance after kanamycin selection (control-corrected) (log10(CPM+1)); higher = more efficient recombination; extreme values may be limits of the assay; sequences stand for … in AGTGCAGAGAAAATCGGCCAGTTTTCTCTGCCTGCAGTCCGCATGCCGTGGGACCCCTTGGGTTCTAACCTGTTGCCTAGATTTATGCAGCGGACTGCCTTTCTCCCAAAGTGATAAACCGG…AGGTTGGTTTCACT; site = the 11-nt donor
Method in brief: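 The measure is log10(CPM+1) for recombinant UMIs. These were PCR-amplified across the donor–target junction and sequenced after Escherichia coli carrying a donor and donor-binding-loop pair library and a target plasmid with T7-inducible IS621 bridge recombinase was plated on IPTG (0.07 mM) plus kanamycin or unselected. CPM were averaged over two replicates and scaled by control-derived factors.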
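Note: IS621 bridge recombinase in Escherichia coli cells against a fixed T5 target plasmid.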

Row | Sequence | recombinant UMI read abundance (log10)
1 | CAAGTCACATGGACCGGTTTTCCCGGTAATCCGTATTTGCG (site CAAGTCACTCA) | 1.27
2 | CAAGTCACATGGACCGGTTTTCCCGGTAATCCGTATTTGCG (site CAAGTCACTCC) | 0.632
3 | CAAGTCACATGGACCGGTTTTCCCGGTAATCCGTATTTGCG (site CAAGTCACTCG) | 2.34
4 | CAAGTCACATGGACCGGTTTTCCCGGTAATCCGTATTTGCG (site CAAGTCACTCT) | 1.63
5 | CAAGTCACATGGACCGGTTTTCCCGGTAATCCGTATTTGGG (site AAAGTCACTCC) | 0.0232
6 | CAAGTCACATGGACCGGTTTTCCCGGTAATCCGTATTTGGG (site CAAATCACTCC) | 0.0224
7 | CAAGTCACATGGACCGGTTTTCCCGGTAATCCGTATTTGGG (site CAACTCACTCC) | 0.177
8 | CAAGTCACATGGACCGGTTTTCCCGGTAATCCGTATTTGGG (site CAAGACACTCC) | 0.0192
9 | CAAGTCACATGGACCGGTTTTCCCGGTAATCCGTATTTGGG (site CAAGCCACTCC) | 0.239
10 | CAAGTCACATGGACCGGTTTTCCCGGTAATCCGTATTTGGG (site CAAGGCACTCC) | 0.0072
11 | CAAGTCACATGGACCGGTTTTCCCGGTAATCCGTATTTGGG (site CAAGTAACTCC) | 0.0617
12 | CAAGTCACATGGACCGGTTTTCCCGGTAATCCGTATTTGGG (site CAAGTCACTAC) | 0.0634
13 | CAAGTCACATGGACCGGTTTTCCCGGTAATCCGTATTTGGG (site CAAGTCACTCA) | 0.0308
14 | CAAGTCACATGGACCGGTTTTCCCGGTAATCCGTATTTGGG (site CAAGTCACTCC) | 0.013
15 | CAAGTCACATGGACCGGTTTTCCCGGTAATCCGTATTTGGG (site CAAGTCACTCG) | 0
16 | CAAGTCACATGGACCGGTTTTCCCGGTAATCCGTATTTGGG (site CAAGTCACTCT) | 0.593
17 | CAAGTCACATGGACCGGTTTTCCCGGTAATCCGTATTTGGG (site CAAGTCACTGC) | 0
18 | CAAGTCACATGGACCGGTTTTCCCGGTAATCCGTATTTGGG (site CAAGTCACTTC) | 0.00273
19 | CAAGTCACATGGACCGGTTTTCCCGGTAATCCGTATTTGGG (site CAAGTCCCTCC) | 0.0287

Row | Sequence | recombinant UMI read abundance (log10)
20 | CAAGTCACATGGACCGGTTTTCCCGGTAATCCGTATTTGGG (site CAAGTCGCTCC) | 0.0204
21 | CAAGTCACATGGACCGGTTTTCCCGGTAATCCGTATTTGGG (site CAAGTCTCTCC) | 0.493
22 | CAAGTCACATGGACCGGTTTTCCCGGTAATCCGTATTTGGG (site CAAGTGACTCC) | 0.0398
23 | CAAGTCACATGGACCGGTTTTCCCGGTAATCCGTATTTGGG (site CAAGTTACTCC) | 0.161
24 | CAAGTCACATGGACCGGTTTTCCCGGTAATCCGTATTTGGG (site CAATTCACTCC) | 0.0165
25 | CAAGTCACATGGACCGGTTTTCCCGGTAATCCGTATTTGGG (site CACGTCACTCC) | 0
26 | CAAGTCACATGGACCGGTTTTCCCGGTAATCCGTATTTGGG (site CAGGTCACTCC) | 0.0212
27 | CAAGTCACATGGACCGGTTTTCCCGGTAATCCGTATTTGGG (site CATGTCACTCC) | 0.0038
28 | CAAGTCACATGGACCGGTTTTCCCGGTAATCCGTATTTGGG (site CCAGTCACTCC) | 0.0443
29 | CAAGTCACATGGACCGGTTTTCCCGGTAATCCGTATTTGGG (site CGAGTCACTCC) | 0.00994
30 | CAAGTCACATGGACCGGTTTTCCCGGTAATCCGTATTTGGG (site CTAGTCACTCC) | 0.0139
31 | CAAGTCACATGGACCGGTTTTCCCGGTAATCCGTATTTGGG (site GAAGTCACTCC) | 0.0173
32 | CAAGTCACATGGACCGGTTTTCCCGGTAATCCGTATTTGGG (site TAAGTCACTCC) | 0.0086
33 | CAAGTCGCATGGACCGGTTTTCCCGGTAATCCGTATTTGGT (site CAAGTCGCTAC) | 1.77
34 | CAAGTGCCATGGACCGGTTTTCCCGGTAATCCGTATTTGTA (site CAAGTGCCTTA) | 1.56
35 | CAAGTTACATGGACCGGTTTTCCCGGTAATCCGTATTTGGG (site CAAGTAACTCC) | 0.277
36 | CAAGTTACATGGACCGGTTTTCCCGGTAATCCGTATTTGGG (site CAAGTCACTCC) | 0.252
37 | CAAGTTACATGGACCGGTTTTCCCGGTAATCCGTATTTGGG (site CAAGTGACTCC) | 0.0286
38 | CAAGTTACATGGACCGGTTTTCCCGGTAATCCGTATTTGGG (site CAAGTTACTCC) | 0.861

Row | Sequence | recombinant UMI read abundance (log10)
39 | CAATCATCATGGACCGGTTTTCCCGGTAATCCGTATTTGAT (site CAATCATCTAT) | 0.435
40 | CAATCATCATGGACCGGTTTTCCCGGTAATCCGTATTTGAT (site CGATCATCTAG) | 0
41 | CAATCATCATGGACCGGTTTTCCCGGTAATCCGTATTTGCC (site CAATCATCTGG) | 0.733
42 | CAATCATCATGGACCGGTTTTCCCGGTAATCCGTATTTGCC (site CGATCATCTAG) | 0
43 | CAATCCTCATGGACCGGTTTTCCCGGTAATCCGTATTTGCC (site CAATCCTCTGG) | 1.54
44 | CAATCCTCATGGACCGGTTTTCCCGGTAATCCGTATTTGCC (site CACTCCTCTGG) | 1.14
45 | CAATCCTCATGGACCGGTTTTCCCGGTAATCCGTATTTGCC (site CAGTCCTCTGG) | 0
46 | CAATCCTCATGGACCGGTTTTCCCGGTAATCCGTATTTGCC (site CATTCCTCTGG) | 0.913
47 | CAATCGGCATGGACCGGTTTTCCCGGTAATCCGTATTTGAC (site CAATCGGCTGT) | 1.77
48 | CAATCTCCATGGACCGGTTTTCCCGGTAATCCGTATTTGCC (site CAATCTCCTGG) | 0
49 | CAATGATCATGGACCGGTTTTCCCGGTAATCCGTATTTGAA (site CAATGATCTTT) | 3.01
50 | CAATGATCATGGACCGGTTTTCCCGGTAATCCGTATTTGAA (site CAATGCTCTTT) | 0.0913
51 | CAATGATCATGGACCGGTTTTCCCGGTAATCCGTATTTGAA (site CAATGGTCTTT) | 0.41
52 | CAATGATCATGGACCGGTTTTCCCGGTAATCCGTATTTGAA (site CAATGTTCTTT) | 0.682
53 | CAATGATCATGGACCGGTTTTCCCGGTAATCCGTATTTGCT (site CAATGATCTAG) | 2.19
54 | CAATGATCATGGACCGGTTTTCCCGGTAATCCGTATTTGCT (site CGATCATCTAG) | 0
55 | CAATGCACATGGACCGGTTTTCCCGGTAATCCGTATTTGAA (site CAATGCACTTT) | 1.97
56 | CAATGCACATGGACCGGTTTTCCCGGTAATCCGTATTTGAA (site CAATGCCCTTT) | 0
57 | CAATGCACATGGACCGGTTTTCCCGGTAATCCGTATTTGAA (site CAATGCGCTTT) | 0.409
